The test deals with T1, N-type calcium channel (NTCC) (Homo sapiens, UniProt Q00975).
T1 construct: host or cells: IMR32 cells differentiated with dibutyryl cAMP and bromodeoxyuridine
Nature of the test: FLIPR calcium mobilization assay for N-type calcium channel. The conditions noted are these: calcium mobilization in vitro assay; differentiated IMR32 cells. The test is classed as cell-based. How it is done: Unless noted otherwise, cell culture reagents were purchased from Mediatech of Herndon, Md. IMR32 cells (American Type Culture Collection, ATCC, Manassas, Va.) were routinely cultured in growth medium consisting of minimum essential medium containing 10% fetal bovine serum (FBS, Hyclone, Logan, Utah), 100 U/mL penicillin, 100 μg/mL streptomycin, 2 mM L-glutamine, 1 mM sodium pyruvate, and 1× MEM non-essential amino acids. 80-90% confluent flasks of cells were differentiated using the following differentiation medium: Growth medium plus 1 mM dibutyryl cyclic AMP (Sigma, St. Louis, Mo.), and 2.5 μM bromodeoxyuridine (Sigma). Cells were differentiated for 8 days by replacing differentiation medium every 2-3 days.
FLIPR Calcium Mobilization Assay for N-Type Calcium Channel.
One day prior to performing this assay, differentiated IMR32 cells were treated with 1× CellStripper, and seeded on poly-D-lysine-coated 96-well clear-bottom black plates (Becton Dickinson, Franklin Lakes, N.J.) at 200,000 cells/well. On the day of the assay, the cell plates were washed with IMR32 buffer (127 mM NaCl, 1 mM KCl, 2 mM MgCl2, 700 μM NaH2PO4, 5 mM CaCl2, 5 mM NaHCO3, 8 mM HEPES, 10 mM glucose, pH 7.4), then pre-stimulated with KCl and loaded as follows: 0.05 mL of IMR32 buffer, 0.05 mL of each compound tested diluted in IMR32 buffer containing 20 μM nitrendipine (Sigma), and 0.1 mL KCl dissolved in IMR32 buffer, plus Fluo-4 were added (3 μM final concentration, Molecular Probes, Eugene, Oreg.). Final test compound concentrations ranged from about 846 pM to about 17 μM, final nitrendipine concentration was 5 μM, and final KCl concentration was 90 mM. After 1 hour, the cells were washed twice with 0.05 mL of each compound is tested in nitrendipine-containing IMR32 buffer (no KCl or Fluo-4), and then replaced with 0.1 mL of each compound tested in nitrendipine-containing IMR32 buffer. Plates were then transferred to a Fluorimetric Imaging Plate Reader (FLIPR^96, Molecular Devices, Inc., Sunnyvale, Calif.) for assay. The FLIPR measured basal Fluo-4 fluorescence for 315 seconds (i.e., 5 minutes and 15 seconds), then added 0.1 mL KCl agonist dissolved in IMR32 buffer and measured fluorescence for another 45 seconds. Final test compound concentrations on the cells after FLIPR read ranged from about 846 pM to about 17 μM, final nitrendipine concentration was 5 μM, and final KCl concentration was 90 mM. Data were collected over the entire time course and analyzed using Excel, Graph Pad Prism (version 3.02, Graph Pad, San Diego, Calif.), or an in-house non-linear regression analysis software.

A value given as a limit tells only on which side of the number the result lay.

IC50 data for 14 compounds are collected here from patent US8791264B2 (Purdue Pharma L.P., priority 2006, dated 2014).

T1 sequence (Q00975 whole entry): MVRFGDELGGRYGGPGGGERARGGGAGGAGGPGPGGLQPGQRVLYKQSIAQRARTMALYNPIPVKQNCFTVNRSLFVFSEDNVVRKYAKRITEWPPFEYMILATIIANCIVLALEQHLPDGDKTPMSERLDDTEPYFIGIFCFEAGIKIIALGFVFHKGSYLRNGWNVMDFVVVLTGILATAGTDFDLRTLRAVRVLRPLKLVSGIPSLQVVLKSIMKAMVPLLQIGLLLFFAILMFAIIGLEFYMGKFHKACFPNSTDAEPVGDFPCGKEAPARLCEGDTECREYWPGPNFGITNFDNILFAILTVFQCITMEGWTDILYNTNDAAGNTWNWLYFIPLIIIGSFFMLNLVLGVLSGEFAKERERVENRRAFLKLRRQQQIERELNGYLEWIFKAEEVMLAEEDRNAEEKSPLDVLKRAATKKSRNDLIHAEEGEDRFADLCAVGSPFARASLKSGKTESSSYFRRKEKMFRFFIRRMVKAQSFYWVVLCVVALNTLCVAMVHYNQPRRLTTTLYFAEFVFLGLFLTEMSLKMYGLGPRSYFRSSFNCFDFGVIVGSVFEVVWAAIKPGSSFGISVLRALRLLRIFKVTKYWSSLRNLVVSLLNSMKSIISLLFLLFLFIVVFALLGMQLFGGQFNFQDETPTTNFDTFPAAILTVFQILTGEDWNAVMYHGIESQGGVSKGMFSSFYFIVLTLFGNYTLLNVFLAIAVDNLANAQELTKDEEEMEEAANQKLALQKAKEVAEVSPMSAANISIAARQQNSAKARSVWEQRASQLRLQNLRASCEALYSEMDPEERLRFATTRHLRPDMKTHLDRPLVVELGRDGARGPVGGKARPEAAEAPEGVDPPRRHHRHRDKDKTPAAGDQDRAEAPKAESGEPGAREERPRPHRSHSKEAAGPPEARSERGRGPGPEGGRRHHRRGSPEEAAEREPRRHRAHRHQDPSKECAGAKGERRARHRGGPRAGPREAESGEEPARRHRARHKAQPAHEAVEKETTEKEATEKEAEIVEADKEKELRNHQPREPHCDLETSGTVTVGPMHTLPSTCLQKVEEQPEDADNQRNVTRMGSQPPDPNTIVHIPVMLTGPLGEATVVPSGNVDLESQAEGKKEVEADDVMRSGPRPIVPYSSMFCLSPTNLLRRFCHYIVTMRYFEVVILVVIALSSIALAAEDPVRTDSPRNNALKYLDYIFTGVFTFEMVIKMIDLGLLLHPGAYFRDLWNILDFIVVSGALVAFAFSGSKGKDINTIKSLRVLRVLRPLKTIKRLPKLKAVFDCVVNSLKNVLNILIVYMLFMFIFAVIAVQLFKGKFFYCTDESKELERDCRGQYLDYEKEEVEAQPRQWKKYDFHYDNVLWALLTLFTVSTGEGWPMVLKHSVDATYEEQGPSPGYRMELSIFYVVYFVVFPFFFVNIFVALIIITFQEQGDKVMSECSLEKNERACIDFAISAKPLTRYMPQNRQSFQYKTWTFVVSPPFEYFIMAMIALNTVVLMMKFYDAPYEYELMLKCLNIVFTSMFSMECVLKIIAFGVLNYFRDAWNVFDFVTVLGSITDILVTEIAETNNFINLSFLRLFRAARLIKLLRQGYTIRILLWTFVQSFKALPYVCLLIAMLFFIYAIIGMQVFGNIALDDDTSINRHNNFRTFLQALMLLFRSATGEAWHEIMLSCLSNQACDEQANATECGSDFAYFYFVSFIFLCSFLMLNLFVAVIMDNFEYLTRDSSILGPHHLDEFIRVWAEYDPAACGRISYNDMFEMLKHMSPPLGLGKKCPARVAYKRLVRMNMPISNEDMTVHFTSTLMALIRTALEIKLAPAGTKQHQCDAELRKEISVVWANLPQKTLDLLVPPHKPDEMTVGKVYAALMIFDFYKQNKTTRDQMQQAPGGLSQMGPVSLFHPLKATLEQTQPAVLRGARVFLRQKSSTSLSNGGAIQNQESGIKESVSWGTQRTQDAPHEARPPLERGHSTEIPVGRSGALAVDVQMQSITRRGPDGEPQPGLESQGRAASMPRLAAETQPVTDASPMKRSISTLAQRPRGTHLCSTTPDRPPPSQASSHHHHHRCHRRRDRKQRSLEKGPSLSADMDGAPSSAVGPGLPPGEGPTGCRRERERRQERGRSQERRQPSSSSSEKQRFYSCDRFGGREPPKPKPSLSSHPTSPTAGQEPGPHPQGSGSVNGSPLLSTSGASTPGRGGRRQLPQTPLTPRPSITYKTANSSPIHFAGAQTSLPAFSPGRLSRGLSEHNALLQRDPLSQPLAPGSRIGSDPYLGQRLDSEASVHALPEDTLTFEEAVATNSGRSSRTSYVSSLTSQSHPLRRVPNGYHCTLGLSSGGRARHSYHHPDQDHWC
T1 sequence (P54289 25-956 partner limits assumed): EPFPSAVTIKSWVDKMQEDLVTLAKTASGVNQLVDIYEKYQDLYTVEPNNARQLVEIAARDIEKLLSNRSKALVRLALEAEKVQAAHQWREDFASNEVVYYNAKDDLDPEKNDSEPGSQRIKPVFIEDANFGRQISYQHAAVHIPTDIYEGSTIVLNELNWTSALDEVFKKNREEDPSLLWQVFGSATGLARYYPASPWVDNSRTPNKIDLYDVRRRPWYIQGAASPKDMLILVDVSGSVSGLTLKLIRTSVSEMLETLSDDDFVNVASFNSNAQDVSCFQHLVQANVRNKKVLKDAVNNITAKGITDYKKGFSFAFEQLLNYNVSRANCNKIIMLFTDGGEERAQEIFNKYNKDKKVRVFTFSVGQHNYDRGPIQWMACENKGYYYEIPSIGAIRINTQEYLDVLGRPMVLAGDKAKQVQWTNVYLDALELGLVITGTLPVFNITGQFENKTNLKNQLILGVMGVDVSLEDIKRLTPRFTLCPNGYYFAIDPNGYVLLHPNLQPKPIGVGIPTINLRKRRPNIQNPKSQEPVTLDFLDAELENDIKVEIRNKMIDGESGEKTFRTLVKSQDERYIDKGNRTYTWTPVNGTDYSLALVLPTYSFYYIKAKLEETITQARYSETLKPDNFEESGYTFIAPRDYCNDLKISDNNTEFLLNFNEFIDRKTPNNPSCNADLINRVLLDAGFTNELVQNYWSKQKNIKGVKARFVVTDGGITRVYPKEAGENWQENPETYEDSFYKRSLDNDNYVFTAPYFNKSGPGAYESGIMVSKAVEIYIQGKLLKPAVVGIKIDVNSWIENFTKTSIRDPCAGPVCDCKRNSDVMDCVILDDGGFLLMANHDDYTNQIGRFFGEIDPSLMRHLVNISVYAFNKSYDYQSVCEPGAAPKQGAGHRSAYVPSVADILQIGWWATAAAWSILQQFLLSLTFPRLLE
T1 sequence (P54289 957-1103 partner limits assumed): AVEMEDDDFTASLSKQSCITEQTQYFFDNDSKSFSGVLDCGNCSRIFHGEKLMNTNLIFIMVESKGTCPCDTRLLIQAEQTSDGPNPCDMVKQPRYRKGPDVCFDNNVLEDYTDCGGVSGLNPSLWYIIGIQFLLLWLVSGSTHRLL
T1 sequence (P54284 whole entry partner): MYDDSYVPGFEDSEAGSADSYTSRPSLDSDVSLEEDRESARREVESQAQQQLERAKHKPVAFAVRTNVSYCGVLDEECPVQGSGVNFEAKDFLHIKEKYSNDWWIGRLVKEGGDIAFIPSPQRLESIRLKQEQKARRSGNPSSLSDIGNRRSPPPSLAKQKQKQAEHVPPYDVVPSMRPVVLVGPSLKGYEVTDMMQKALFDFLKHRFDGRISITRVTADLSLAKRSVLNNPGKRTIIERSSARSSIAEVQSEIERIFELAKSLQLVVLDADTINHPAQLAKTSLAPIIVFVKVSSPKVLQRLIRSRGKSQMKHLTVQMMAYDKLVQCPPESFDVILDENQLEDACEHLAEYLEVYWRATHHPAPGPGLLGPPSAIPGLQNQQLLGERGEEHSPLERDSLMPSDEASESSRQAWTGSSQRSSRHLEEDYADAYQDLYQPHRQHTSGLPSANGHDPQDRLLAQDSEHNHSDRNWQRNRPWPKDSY

For the compound “2-[4-(Benzenesulfonylmethylamino)-piperidin-1-yl]-N-(4-fluorophenyl)acetamide [Compound 47]”, the half-inhibitory concentration (IC50) came to 2.95 µM.

Consider `CC(C)CNC(=O)CN1CCC(N(C)S(=O)(=O)c2ccccc2)CC1` [2-[4-(benzenesulfonyl-methyl-amino)-piperidin-1-yl]-N-isobutyl-acetamide], for which the 50% inhibitory concentration (IC50) is more than 20 µM. With `CC(C)NC(=O)C(=O)N1CCC(N(C2CC2)S(=O)(=O)c2cccc(C(F)(F)F)c2)CC1` [2-{4-[cyclopropyl-(3-trifluoromethylbenzenesulfonyl)-amino]-piperidin-1-yl}-N-isopropyl-2-oxo-acetamide], the IC50 turned out to be 3.2 µM. With `CC(C)N(C1CCN(C(=O)CNc2ccc(F)cc2)CC1)S(=O)(=O)c1cccc(C(F)(F)F)c1` [Compound 17, N-{1-[2-(4-Fluorophenylamino)acetyl]-piperidin-4-yl}-N-isopropyl-3-trifluoromethylbenzenesulfonamide], the IC50 was determined as 1.68 µM. Turning to `O=C(CC(=O)N1CCC(N(C2CC2)S(=O)(=O)c2cccc(C(F)(F)F)c2)CC1)Nc1ccc(F)cc1F` [Compound 27, 3-{4-[Cyclopropyl-(3-trifluoromethylbenzenesulfonyl)amino]-piperidin-1-yl}-N-(2,4-difluorophenyl)-3-oxo-propionamide], the IC50 turned out to be 1.33 µM. `CN(C1CCN(C(=O)CC(=O)Nc2ccc(F)cc2F)CC1)S(=O)(=O)c1cccc(C(F)(F)F)c1` [Compound 28, N-(2,4-Difluorophenyl)-3-{4-[methyl-(3-trifluoromethylbenzene-sulfonyl)amino]-piperidin-1-yl}-3-oxo-propionamide]: the IC50 amounted to 4.9 µM.

Take `O=C(CC(=O)N1CCC(N(C2CC2)S(=O)(=O)c2cccc(Cl)c2)CC1)Nc1ccc(F)cc1F` [Compound 29, 3-{4-[(3-Chlorobenzenesulfonyl)-cyclopropylamino]-piperidin-1-yl}-N-(2,4-difluorophenyl)-3-oxo-propionamide]: the IC50 is 8.86 µM.

For `CC(C)N(C1CCN(CC(N)=O)CC1)S(=O)(=O)c1cccc(C(F)(F)F)c1` [Compound 33, 2-{4-[Isopropyl-(3-trifluoromethylbenzenesulfonyl)amino]-piperidin-1-yl}-acetamide], the IC50 fell in the range of 10 to 20 µM. In the case of `Cc1cccc(S(=O)(=O)N(C2CC2)C2CCN(CC(=O)NCC(C)C)CC2)c1` [Compound 35, 2-{4-[Cyclopropyl-(toluene-3-sulfonyl)amino]-piperidin-1-yl}-N-isobutylacetamide], the half-maximal inhibitory concentration (IC50) worked out at 5.93 µM. With `CC(C)CNC(=O)CN1CCC(N(C2CC2)S(=O)(=O)c2cccc(F)c2)CC1` [Compound 36, 2-{4-[Cyclopropyl-(3-fluorobenzenesulfonyl)amino]-piperidin-1-yl}-N-isobutylacetamide], the half-inhibitory concentration (IC50) stood at 8 µM. Take `CC(C)CNC(=O)CN1CCC(N(C2CC2)S(=O)(=O)c2ccccc2)CC1` [Compound 37, 2-[4-(Benzenesulfonyl-cyclopropylamino)-piperidin-1-yl]-N-isobutylacetamide]: the concentration for half-maximal inhibition (IC50) is more than 20 µM. With `Cc1cccc(C)c1NC(=O)CN1CCC(N(C(C)C)S(=O)(=O)c2cccc(C(F)(F)F)c2)CC1` [Compound 42a, N-(2,6-Dimethylphenyl)-2-{4-[isopropyl-(3-trifluoromethylbenzenesulfonyl)amino]-piperidin-1-yl}-acetamide], the half-inhibitory concentration (IC50) was 1.13 µM.

In the case of `Cc1ccc(NC(=O)CN2CCC(N(C(C)C)S(=O)(=O)c3cccc(C(F)(F)F)c3)CC2)cc1` [Compound 42e, 2-{4-[Isopropyl-(3-trifluoromethylbenzenesulfonyl)amino]-piperidin-1-yl}-N-p-tolyl-acetamide], the 50% inhibitory concentration (IC50) stood at 1.63 µM. Regarding `Cc1cccc(S(=O)(=O)N(C2CC2)C2CCN(CC(=O)Nc3ccc(F)cc3)CC2)c1` [Compound 45, 2-{4-[Cyclopropyl-(toluene-3-sulfonyl)amino]-piperidin-1-yl}-N-(4-fluorophenyl)acetamide], the IC50 came to 1.39 µM.
